Reference: the NIST ThermoML archive (doi:10.1016/j.tca.2013.09.017)
Numbers after ± are expanded uncertainties.

What was measured:
[1] = mn = molality of the nth substance listed, in mol/kg; details: 298.15 K, 101 kPa, Liquid; for speed of sound: Sing-around technique in a fixed-path interferometer; for mass density: Vibrating tube method
[2] = 298.15 K, 101.33 kPa, Liquid; for speed of sound: Sing-around technique in a fixed-path interferometer; for mass density: Vibrating tube method

CN1CCCC1=O [N-methylpyrrolidone] + CCCCO
[1]
Details | mass density [kg/m3] | speed of sound [m/s]
m1 = 0.0846 | 807.27 ± 0.15 | 1243 ± 1
m1 = 0.1506 | 808.43 ± 0.15 | 1244.6 ± 1
m1 = 0.23 | 809.82 ± 0.15 | 1245.8 ± 1
m1 = 0.2953 | 810.94 ± 0.14 | 1247.7 ± 1
m1 = 0.3712 | 812.24 ± 0.14 | 1249.6 ± 1

CCC(=O)N(C)C [N,N-dimethylpropionamide] + CCCO
[1]
Details | mass density [kg/m3] | speed of sound [m/s]
m1 = 0.0515 | 800.16 ± 0.15 | 1207.9 ± 1
m1 = 0.1316 | 801.03 ± 0.15 | 1209.6 ± 1
m1 = 0.2061 | 801.84 ± 0.15 | 1211.2 ± 1
m1 = 0.2845 | 802.68 ± 0.15 | 1212.9 ± 1
m1 = 0.3632 | 803.51 ± 0.15 | 1214.5 ± 1

CN1CCCC1=O [N-methylpyrrolidone] + CCCCCCC
[1]
Details | mass density [kg/m3] | speed of sound [m/s]
m1 = 0.0859 | 681.45 ± 0.21 | 1133.1 ± 0.9
m1 = 0.1879 | 683.75 ± 0.21 | 1135 ± 0.9
m1 = 0.2695 | 685.56 ± 0.2 | 1136.4 ± 0.9
m1 = 0.3576 | 687.51 ± 0.2 | 1137.7 ± 0.9
m1 = 0.4488 | 689.49 ± 0.2 | 1139.2 ± 0.9

CCC(=O)N(C)C [N,N-dimethylpropionamide] + O
[1]
Details | mass density [kg/m3] | speed of sound [m/s]
m1 = 0.0588 | 996.85 ± 0.07 | 1501.1 ± 1.1
m1 = 0.1486 | 996.53 ± 0.07 | 1508.1 ± 1.1
m1 = 0.2471 | 996.2 ± 0.08 | 1515.7 ± 1.1
m1 = 0.3518 | 995.95 ± 0.08 | 1522 ± 1.1
m1 = 0.4457 | 995.72 ± 0.08 | 1528.2 ± 1.1

CCC(=O)N(C)C [N,N-dimethylpropionamide] + CCCCO
[1]
Details | mass density [kg/m3] | speed of sound [m/s]
m1 = 0.0494 | 806.25 ± 0.15 | 1241.7 ± 1
m1 = 0.1311 | 807.08 ± 0.15 | 1243.2 ± 1
m1 = 0.21 | 807.88 ± 0.15 | 1244.6 ± 1
m1 = 0.2899 | 808.68 ± 0.15 | 1246.1 ± 1
m1 = 0.3702 | 809.48 ± 0.15 | 1247.5 ± 1

C1CCCCC1 [cyclohexane]
[2]
Details | mass density [kg/m3] | speed of sound [m/s]
– | 773.82 ± 0.16 | 1255 ± 0.97

CCC(=O)N(C)C [N,N-dimethylpropionamide] + CCCCCCC
[1]
Details | mass density [kg/m3] | speed of sound [m/s]
m1 = 0.0487 | 680.32 ± 0.21 | 1132.3 ± 0.9
m1 = 0.1515 | 681.98 ± 0.21 | 1133.4 ± 0.9
m1 = 0.2686 | 683.9 ± 0.21 | 1135.1 ± 0.9
m1 = 0.3627 | 685.47 ± 0.2 | 1136.2 ± 0.9
m1 = 0.4628 | 687.09 ± 0.2 | 1137.5 ± 0.9

CCC(=O)N(C)C [N,N-dimethylpropionamide] + C1CCCCC1
[1]
Details | mass density [kg/m3] | speed of sound [m/s]
m1 = 0.05 | 773.91 ± 0.16 | 1254.7 ± 1
m1 = 0.1518 | 774.79 ± 0.16 | 1254.7 ± 1
m1 = 0.2497 | 775.68 ± 0.16 | 1254.8 ± 1
m1 = 0.355 | 776.64 ± 0.16 | 1254.9 ± 1
m1 = 0.4496 | 777.52 ± 0.16 | 1255 ± 1

CN1CCCC1=O [N-methylpyrrolidone] + CO
[1]
Details | mass density [kg/m3] | speed of sound [m/s]
m1 = 0.0786 | 788.33 ± 0.16 | 1106.3 ± 0.9
m1 = 0.1588 | 789.97 ± 0.15 | 1109 ± 0.9
m1 = 0.2275 | 791.35 ± 0.15 | 1111.2 ± 0.9
m1 = 0.3082 | 792.96 ± 0.15 | 1114 ± 0.9
m1 = 0.3854 | 794.5 ± 0.15 | 1116.6 ± 0.9

CCCO [propan-1-ol]
[2]
Details | mass density [kg/m3] | speed of sound [m/s]
– | 799.58 ± 0.15 | 1206.7 ± 0.95

CCC(=O)N(C)C [N,N-dimethylpropionamide] + CO
[1]
Details | mass density [kg/m3] | speed of sound [m/s]
m1 = 0.0618 | 787.53 ± 0.16 | 1105 ± 0.9
m1 = 0.1442 | 788.62 ± 0.16 | 1107 ± 0.9
m1 = 0.2317 | 789.76 ± 0.15 | 1109.6 ± 0.9
m1 = 0.3264 | 790.9 ± 0.15 | 1112 ± 0.9
m1 = 0.4233 | 792.14 ± 0.15 | 1114.7 ± 0.9

CCC(=O)N(C)C [N,N-dimethylpropionamide] + CCO
[1]
Details | mass density [kg/m3] | speed of sound [m/s]
m1 = 0.0587 | 785.99 ± 0.16 | 1146.6 ± 0.9
m1 = 0.1486 | 787.09 ± 0.16 | 1148.1 ± 0.9
m1 = 0.2471 | 788.4 ± 0.16 | 1150.7 ± 0.9
m1 = 0.3517 | 789.6 ± 0.15 | 1153.2 ± 0.9
m1 = 0.4456 | 790.79 ± 0.15 | 1155.3 ± 0.9

CN1CCCC1=O [N-methylpyrrolidone]
[2]
Details | mass density [kg/m3] | speed of sound [m/s]
– | 1028.01 ± 0.08 | 1545.2 ± 1.1

CCCCO [butan-1-ol]
[2]
Details | mass density [kg/m3] | speed of sound [m/s]
– | 805.72 ± 0.15 | 1240.5 ± 0.97

CCCCCCC [heptane]
[2]
Details | mass density [kg/m3] | speed of sound [m/s]
– | 679.51 ± 0.21 | 1131.4 ± 0.92

CCO [ethanol]
[2]
Details | mass density [kg/m3] | speed of sound [m/s]
– | 785.22 ± 0.16 | 1145.2 ± 0.93

CN1CCCC1=O [N-methylpyrrolidone] + CCCO
[1]
Details | mass density [kg/m3] | speed of sound [m/s]
m1 = 0.0757 | 801.03 ± 0.15 | 1209.1 ± 1
m1 = 0.1611 | 802.58 ± 0.15 | 1211.6 ± 1
m1 = 0.2275 | 803.78 ± 0.15 | 1213.4 ± 1
m1 = 0.3064 | 805.2 ± 0.15 | 1215.6 ± 1
m1 = 0.381 | 806.51 ± 0.15 | 1217.6 ± 1

CCC(=O)N(C)C [N,N-dimethylpropionamide]
[2]
Details | mass density [kg/m3] | speed of sound [m/s]
– | 921.16 ± 0.19 | 1425.4 ± 1.2

CO [methanol]
[2]
Details | mass density [kg/m3] | speed of sound [m/s]
– | 786.66 ± 0.16 | 1103.4 ± 0.91

CN1CCCC1=O [N-methylpyrrolidone] + C1CCCCC1
[1]
Details | mass density [kg/m3] | speed of sound [m/s]
m1 = 0.0792 | 774.81 ± 0.16 | 1256 ± 1
m1 = 0.1648 | 776.26 ± 0.16 | 1256.8 ± 1
m1 = 0.2385 | 777.5 ± 0.16 | 1257.6 ± 1
m1 = 0.3142 | 778.77 ± 0.16 | 1258.3 ± 1
m1 = 0.3925 | 780.08 ± 0.16 | 1258.7 ± 1

CN1CCCC1=O [N-methylpyrrolidone] + CCO
[1]
Details | mass density [kg/m3] | speed of sound [m/s]
m1 = 0.077 | 786.74 ± 0.16 | 1146.8 ± 0.9
m1 = 0.1554 | 788.32 ± 0.16 | 1149.3 ± 0.9
m1 = 0.2349 | 789.86 ± 0.15 | 1151.9 ± 0.9
m1 = 0.3089 | 791.28 ± 0.15 | 1154 ± 0.9
m1 = 0.388 | 792.78 ± 0.15 | 1156.5 ± 0.9

CN1CCCC1=O [N-methylpyrrolidone] + O
[1]
Details | mass density [kg/m3] | speed of sound [m/s]
m1 = 0.0621 | 997.34 ± 0.07 | 1500.7 ± 1.1
m1 = 0.1225 | 997.63 ± 0.07 | 1504.4 ± 1.1
m1 = 0.1806 | 997.92 ± 0.07 | 1507.8 ± 1.1
m1 = 0.2399 | 998.21 ± 0.07 | 1511.4 ± 1.1
m1 = 0.3036 | 998.54 ± 0.07 | 1515.1 ± 1.1
